What all share (format): cell-based
The target in series [1] is ABCB1 (P-glycoprotein, P-gp) (Homo sapiens, UniProt P08183). Put plainly: daunorubicin assay, ABCB1-expressing A2780/ADR cells. Particulars: human, ABCB1-expressing A2780/ADR cells, probe daunorubicin (3 μM final); relative to reference inhibitor 34 = 100%; read-out: maximal inhibition (Imax), ABCB1 daunorubicin.
Series [2] relates to A-549 cells. Put plainly: cell cycle distribution analysis, PI flow cytometry. The note with it: 5 μM, 24 h. As for the experimental part: The antineoplastic agent 33 (5 μM) was used as a reference. […] Compound 24 caused a disruption of the cell cycle of A-549 cancer cells, indicated by a shift from the predominant G0/G1 phase (Figure 8A) to the apoptotic sub-G1 phase as well as the G2/M phase (Figure 8B). A similar G2/M arrest could be observed for reference compound 33 (Figure 8C); however, MCT1 inhibitor 24 led to a larger fraction of cells into the sub-G1 phase, indicating induced apoptosis. This experiment discovered that compound 24 inhibits cell proliferation, causing cell cycle arrest and, eventually, apoptosis. To confirm our findings, we conducted an apoptosis assay using compound 24.
A standard PI staining procedure was used as described earlier[44]−[46] to determine the effect of compounds 24 and 33 on cell cycle progression, followed by flow cytometry analysis (FACS Aria SORP and FACS Aria Fusion, BD Biosciences, Franklin Lakes, NJ). In brief, A-549 cells were seeded onto a 6-well plate (250,000 cells/well) and incubated for 24 h at 37 °C under a 5% CO2-humidified atmosphere before being observed under a microscope. The cells were treated with compound 24 (5 μM) or 33 (5 μM) and further incubated for 24 h at 37 °C under a 5% CO2-humidified atmosphere. Then, the cells were harvested and washed twice with cold PBS (Genetix Biotech Asia, New Delhi, India) before being fixed overnight in ice-cold 70% (v/v) ethanol at 4 °C. The cells were again washed two times with PBS and subsequently resuspended with RNase (100 μg/mL; HiMedia, Mumbai, India) and their DNA was stained with PI (40 μg/mL; Sigma-Aldrich, Mumbai, India) before being incubated in the dark for 10 min. The DNA content was measured at the Indian Institute of Technology Bombay (IITB, Mumbai, India) by applying flow cytometry.
In general terms: In flow cytometry, cells or beads pass a laser one at a time.

Series [3] has as its target ABCB1 (P-gp) (Homo sapiens, UniProt P08183). Nature of the series: daunorubicin assay, ABCB1-expressing A2780/ADR cells. Particulars: human, ABCB1-expressing A2780/ADR cells, probe daunorubicin (3 μM final); relative to reference inhibitor 34 = 100%; read-out: maximal inhibition (Imax), ABCB1 daunorubicin.
In series [4] the test system is A-549 cells. Put plainly: PI/Annexin V-FITC apoptosis assay. The note with it: 5 μM. The source says: As compound 24 increased the sub-G1 cell cycle fraction of A-549 cells, we investigated its capability to induce apoptosis in a PI/Annexin V-FITC staining assay, as reported earlier.[44],[46]−[51] In short, cells that were stained with PI only were considered necrotic cells (Q1), while cells stained with both PI and Annexin V were late apoptotic (Q2), and cells stained with Annexin V only were early apoptotic (Q4). Cells negative on both PI and Annexin V were considered living cells (Q3).
A PI/Annexin V-FITC double staining method was used to carry out a flow cytometry-based apoptosis assay, as reported earlier.[44],[46]−[51] For this purpose, a PI/Annexin V-FITC apoptosis detection kit (BD Biosciences, Franklin Lakes, NJ) was used following the manufacturer’s instructions. A-549 cells were seeded onto 6-well plates with a density of 500,000 cells/well and incubated for 24 h at 37 °C under a 5% CO2-humidified atmosphere. Subsequently, the cells were exposed to compound 24 (5 μM) followed by a further incubation period of 24 h at 37 °C under a 5% CO2-humidified atmosphere. The cells were trypsinized, washed with PBS, and resuspended in 1x binding buffer (1,000,000 cells/mL). One hundred microliters of test solution containing 100,000 cells treated with a mixture of PI (5 μL) and Annexin V-FTIC (5 μL) was incubated in the dark for 10–15 min at room temperature. Four hundred microliters of binding buffer was added, and the cells were resuspended again just before the flow cytometry analysis by using flow cytometry.

Chain of ABCB1 (P-glycoprotein, P-gp) (P08183 whole entry): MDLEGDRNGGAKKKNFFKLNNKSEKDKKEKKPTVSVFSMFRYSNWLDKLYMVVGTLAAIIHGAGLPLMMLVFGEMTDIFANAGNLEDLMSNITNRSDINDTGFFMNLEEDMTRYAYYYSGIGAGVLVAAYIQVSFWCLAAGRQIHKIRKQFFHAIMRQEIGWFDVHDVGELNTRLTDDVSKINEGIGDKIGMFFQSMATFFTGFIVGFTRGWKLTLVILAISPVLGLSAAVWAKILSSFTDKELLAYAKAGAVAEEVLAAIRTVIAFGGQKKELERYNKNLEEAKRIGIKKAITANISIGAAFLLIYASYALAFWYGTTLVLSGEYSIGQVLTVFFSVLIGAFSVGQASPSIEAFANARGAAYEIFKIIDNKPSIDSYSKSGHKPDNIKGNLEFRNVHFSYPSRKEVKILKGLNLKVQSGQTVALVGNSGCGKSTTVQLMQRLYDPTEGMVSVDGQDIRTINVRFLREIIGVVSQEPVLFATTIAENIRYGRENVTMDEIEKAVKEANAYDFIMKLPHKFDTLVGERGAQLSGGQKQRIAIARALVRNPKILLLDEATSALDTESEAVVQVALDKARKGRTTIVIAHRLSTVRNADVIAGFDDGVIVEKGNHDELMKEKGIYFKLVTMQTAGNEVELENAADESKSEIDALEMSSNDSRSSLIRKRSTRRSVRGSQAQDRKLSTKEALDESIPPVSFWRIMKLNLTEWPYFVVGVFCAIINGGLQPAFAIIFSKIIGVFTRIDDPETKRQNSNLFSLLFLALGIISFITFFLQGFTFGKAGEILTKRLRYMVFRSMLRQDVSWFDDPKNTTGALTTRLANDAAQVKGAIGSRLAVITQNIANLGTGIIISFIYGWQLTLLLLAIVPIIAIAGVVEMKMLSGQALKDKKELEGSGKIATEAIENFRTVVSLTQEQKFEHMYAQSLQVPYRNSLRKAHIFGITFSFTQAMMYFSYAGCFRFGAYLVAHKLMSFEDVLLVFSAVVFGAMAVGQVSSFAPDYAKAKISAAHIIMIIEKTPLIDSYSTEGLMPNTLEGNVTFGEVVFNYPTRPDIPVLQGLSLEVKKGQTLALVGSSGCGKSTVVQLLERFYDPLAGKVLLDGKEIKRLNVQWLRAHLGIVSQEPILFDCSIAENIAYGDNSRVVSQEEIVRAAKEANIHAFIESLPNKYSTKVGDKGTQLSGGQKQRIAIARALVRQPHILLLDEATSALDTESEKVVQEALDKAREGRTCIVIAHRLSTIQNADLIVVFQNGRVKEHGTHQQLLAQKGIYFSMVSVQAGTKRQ
Chain of ABCB1 (P-gp) (P08183 whole entry): as above

Broadly, the inhibition is the relative decrease from the control value, in per cent. As to `COC(=O)/C(C#N)=C/c1cn(CC(=O)Nc2ccc(C)cn2)c2ccccc12` [Compound 30, Methyl-2-cyano-3-(1-(2-((5-methylpyridin-2-yl)amino)-2-oxoethyl)-1H-indol-3-yl) Acrylate], the inhibition at 180 min in series [1] amounted to 93.3%.

On to `COC(=O)/C(C#N)=C/c1cn(CC(=O)Nc2ccc(OC)cc2)c2ccccc12` [Compound 24, Methyl-2-cyano-3-(1-(2-((4-methoxyphenyl)amino)-2-oxoethyl)-1H-indol-3-yl) Acrylate], for which, in series [2], the “cells in G0/G1 phase” value amounted to 38.1%, the “cells in G2/M phase” value worked out at 22.3%, the “cells in S phase” value is 18.0% and the “cells in Sub-G1 phase” value was 20.6%. Also, in series [3], the inhibition at 180 min turned out to be 84%. Moreover, the “factor of increase of total apoptotic cells vs untreated” value in series [4] is reported as 13. Further, in series [4] (24 h), the “Q1 necrotic cells (PI only)” value is 10.6%; the “Q2 late apoptotic cells (PI and Annexin V)” value is 5.08%; the Q3 living cells worked out at 82.7%; the “Q4 early apoptotic cells (Annexin V only)” value amounted to 1.60%. Besides, the “percentage of total apoptotic cells” value in series [4] (24 h, untreated 0.51%) was 6.68%.

(Values after article PMC9841531, “Indole Derivatives as New Structural Class of Potent and Antiproliferative Inhibitors of Monocarboxylate Transporter 1 (MCT1; SLC16A1)” (Journal of Medicinal Chemistry, 2022).)
